We go through one substance from patent US20100120700A1, “METHODS AND COMPOSITIONS FOR TREATING CERVICAL CANCER” (priority 2000, published 2010).

Where “and” joins values, the source holds several entries; their conditions need not be identical. Equal entries are not always repeated.

For one assay, the target named is T1, DLG2 #290.1 domain 2 (Homo sapiens, UniProt Q15700, K278N).
T1 construct: made in house; host or cells: E. coli (DH5alpha, BL21 or JM109)
Put plainly: G assay PDZ-PL binding. Particulars: peptide 10 uM, protein 5. As to the method:
(1) A PDZ-domain polypeptide is bound to a surface, e.g. a protein binding surface. In a preferred embodiment, a GST/PDZ fusion protein containing one or more PDZ domains is bound to a polystyrene 96-well plate. […] In one embodiment, the GST/PDZ fusion protein is bound via an anti-GST antibody that is coated onto the 96-well plate. Adequate binding to the plate can be achieved when: • a. 100 uL per well of 5 ug/mL goat anti-GST polyclonal antibody (Pierce) in PBS is added to a polystyrene 96-well plate (e.g., Num Polysorb) at 4° C. for 12 hours. • b. The plate is blocked by addition of 200 uL per well of PBS/BSA for 2 hours at 4° C. • c. The plate is washed 3 times with PBS. • d. 50 uL per well of 5 ug/mL GST/PDZ fusion protein) or, as a negative control, GST polypeptide alone (i.e. not a fusion protein) in PBS/BSA is added to the plate for 2 hours at 4° C. • e. The plate is again washed 3 times with PBS.
(2) Biotinylated PL peptides are allowed to react with the surface by addition of 50 uL per well of 20 uM solution of the biotinylated peptide in PBS/BSA for 10 minutes at 4° C., followed by an additional 20 minute incubation at 25° C.
(3) The binding of the biotinylated peptide to the GST/PDZ fusion protein surface can be detected using a variety of methods and detectors known to one of skill in the art. In one embodiment, 100 uL per well of 0.5 ug/mL streptavidin-horse radish peroxidase (HRP) conjugate dissolved in BSA/PBS is added and allowed to react for 20 minutes at 4° C. The plate is then washed 5 times with 50 mM Tris pH 8.0 containing 0.2% Tween 20, and developed by addition of 100 uL per well of HRP-substrate solution (TMB, Dako) for 20 minutes at room temperature (RT). The reaction of the HRP and its substrate is terminated by addition of 100 uL per well of 1M sulfuric acid, and the absorbance of each well of the plate is read at 450 nm.
(4) Specific binding of a PL peptide and a PDZ domain polypeptide is determined by comparing the signal from the well(s) in which the PL peptide and PDZ domain polypeptide are combined, with the background signal(s). The background signal is the signal found in the negative control(s). Typically a specific or selective reaction will be at least twice background signal, more typically more than 5 times background, and most typically 10 or more times the background signal. In addition, a statistically significant reaction will involve multiple measurements of the reaction with the signal and the background differing by at least two standard errors, more typically four standard errors, and most typically six or more standard errors. Correspondingly, a statistical test (e.g. a T-test) comparing repeated measurements of the signal with-repeated measurements of the background will result in a p-value<0.05, more typically a p-value<0.01, and most typically a p-value<0.001 or less. As noted, in an embodiment of the “G” assay, the signal from binding of a given PL peptide to immobilized (surface bound) GST polypeptide alone is one suitable negative control (sometimes referred to as “B 1”). Because all measurement are done in multiples (i.e. at least duplicate) the arithmetic mean (or, equivalently, average.) of several measurements is used in determining the binding, and the standard error of the mean is used in determining the probable error in the measurement of the binding. The standard error of the mean of N measurements equals the square root of the following: the sum of the squares of the difference between each measurement and the mean, divided by the product of (N) and (N−1). Thus, in one embodiment, specific binding of the PDZ protein to the platebound peptide is determined by comparing the mean signal (“mean S”) and standard error of the signal (“SE”) for a particular PL-PDZ combination with the mean B1. […]

Another assay relates to VARTUL. Particulars: E6 peptide titrated against constant GST-PDZ. As to the method:
(§1) (1) A GST/PDZ fusion protein, as well as GST alone as a negative control, are bound to a surface (e.g., a 96-well plate) and the surface blocked and washed as described supra for the “G” assay.
(§2) (2) 50 uL per well of a solution of biotinylated PL peptide (e.g. as shown in TABLE 2) is added to the surface in increasing concentrations in PBS/BSA (e.g. at 0.1 uM, 0.33 uM, 1 uM, 3.3 uM, 10 uM, 33 uM, and 100 uM). In one embodiment, the PL peptide is allowed to react with the bound GST/PDZ fusion protein (as well as the GST alone negative control) for 10 minutes at 4° C. followed by 20 minutes at 25° C. The plate is washed 3 times with ice cold PBS to remove unbound labeled peptide.
(§3) (3) The binding of the PL peptide to the immobilized PDZ-domain polypeptide is detected as described supra for the “G” assay.
(§4) (4) For each concentration of peptide, the net binding signal is determined by subtracting the binding of the peptide to GST alone from the binding of the peptide to the GST/PDZ fusion protein. The net binding signal is then plotted as a function of ligand concentration and the plot is fit (e.g. by using the Kaleidagraph software package curve fitting algorithm; Synergy Software) to the following equation, where “Signal[ligand]” is the net binding signal at PL peptide concentration “[ligand],” “Kd” is the apparent affinity of the binding event, and “Saturation Binding” is a constant determined by the curve fitting algorithm to optimize the fit to the experimental data: […]

The test system of a further assay is SAST2. Particulars: E6 peptide titrated against constant GST-PDZ; SAST2 (1). As to the method:
as §1, §2, §3, §4

Another assay concerns the target DLG2 (PDZ3) (Homo sapiens, UniProt Q15700). Particulars: E6 peptide titrated against constant GST-PDZ; DLG2 (3). As to the method: as §1, §2, §3, §4
The next assay deals with SAST1 KIAA. Particulars: E6 peptide titrated against constant GST-PDZ. As to the method:
as §1, §2, §3, §4

In another assay the target is SIP1 (PDZ1) (Homo sapiens, UniProt Q15599). Particulars: E6 peptide titrated against constant GST-PDZ; SIP1 (1). As to the method: as §1, §2, §3, §4
Another assay deals with Magi3 (PDZ1) (Homo sapiens, UniProt Q5TCQ9). Particulars: E6 peptide titrated against constant GST-PDZ; Magi3 (1). As to the method: as §1, §2, §3, §4
In a further assay the target is Magi1C (PDZ2) (Homo sapiens, UniProt Q96QZ7). Particulars: E6 peptide titrated against constant GST-PDZ; Table 10 prints Magi1C (1). As to the method:
as §1, §2, §3, §4

In the next assay the target is PSD95 (PDZ2) (Homo sapiens, UniProt P78352). Particulars: E6 peptide titrated against constant GST-PDZ; PSD95 (2). As to the method:
as §1, §2, §3, §4

Sequence of Magi3 (PDZ1) (Q5TCQ9 401-502): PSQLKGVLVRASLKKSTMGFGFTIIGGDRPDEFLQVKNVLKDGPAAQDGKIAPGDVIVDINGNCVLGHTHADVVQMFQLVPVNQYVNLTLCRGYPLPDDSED
Sequence of Magi1C (PDZ2) (Q96QZ7 463-566): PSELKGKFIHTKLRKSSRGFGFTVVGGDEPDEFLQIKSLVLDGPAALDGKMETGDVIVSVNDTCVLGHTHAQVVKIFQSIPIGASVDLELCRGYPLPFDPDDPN
Sequence of SIP1 (PDZ1) (Q15599 with tags, fused parts or gaps): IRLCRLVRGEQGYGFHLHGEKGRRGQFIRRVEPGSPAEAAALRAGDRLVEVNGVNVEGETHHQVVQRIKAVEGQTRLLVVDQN

Usually EC50 stands for the concentration giving half of the maximal effect. As to “20 mer peptide corresponding to the C-terminus of HPV16 E6 (PDZ ligand), biotinylated in binding assays; ends SSRTRRETQL (SEQ ID NO: 13) [HPV E6 #16]”, the “Ave OD” value on DLG2 #290.1 domain 2 (A450 nm) is 1.784 and 1.439. For the same substance, at DLG2 #290.1 domain 2 (vs GST only well), the “OD S/N” value was 9.17 and 13.39. The EC50 with VARTUL worked out at 940 nM; in the assay with SAST2, 1200 nM; on DLG2 (PDZ3), 1600 nM; in the assay with SAST1 KIAA it was 580 nM; on SIP1 (PDZ1) it was 7500 nM; on Magi3 (PDZ1), 310 nM. For the same substance, the results for the EC50 at Magi1C (PDZ2) and on PSD95 (PDZ2) were 56 nM and 6800 nM, respectively.
